From patent US20170319519A1, “COMBINATION FOR THE TREATMENT OF CONDITIONS INVOLVING MUSCULAR PAIN” (Spherium Biomed S.L., priority 2014, published 2017)

Tested on: patients with temporomandibular pain
Test: Global pain reduction in TMJ patients, visual analogic scale (VAS)
Type: in vivo
Conditions: n=3 per group, treated 3 times over 24 h, VAS 8 hours after the last administration
Procedure: In order to test the role of vitamin C in the formulation 7 groups of patients (n=3) with temporomandibular pain were administered the following combinations:
Patients were treated 3 times over 24 h, and were asked to evaluate their pain (localized and general) 8 hours after the last administration using a visual analogic scale (VAS) from 1 to 10, being 10 the most positive situation. The results of the two assessments were summed up to obtain the global pain score.

O=C1O[C@H]([C@@H](O)CO)C(O)=C1O [Group 7, Vitamin C]
effect on reduction of (global) pain, conclusions in words: worst values in all parameters | effect on reduction of (global) pain, conclusions in words (listed as Vit C): no effect
